For test [1], the system named is BT-474. The test is described as follows: In vitro cell proliferation inhibition, WST assay. Format: cell-based, human. The following applies: BT-474 cells, cultured for 3 days, read-out: BT-474 (nM) proliferation inhibitory activity (IC50 value). As to the method: Test of In Vitro Cell Proliferation Inhibition of Test Compound
As a human-derived cancer cell strain, BT-474 was used. Cells were all cultured in a 37° C., 5% CO2 incubator in a medium in which 10% bovine fetal serum (ICN) and 50 units ml penicillin/60 μg/ml streptomycin solution (GIBCO) were added to Dulbecco's Modified Essential Medium (DMEM, Nacalai Tesque, Inc).

Test [2] has as its target T1, EGFR (Homo sapiens, UniProt P00533).
T1 construct: purchased Carna Biosciences, Inc; host or cells: insect cell expression system
In words: Enzyme inhibitory activity on EGFR (time resolution fluorescence, biotinylated poly-Glu-Tyr substrate). Format: biochemical. The following applies: EGFR purified from insect cell expression system; ATP solution 125 μM; room temperature, 60 minutes. As to the method:
(§1) Enzyme Inhibitory Activity of Test Compound on EGFR and HER2
(§2) EGFR and HER2 purified from an insect cell expression system, and a biotinylated substrate (synthetic peptide of glutamic acid:tyrosine=4:1) were added to a 384-well plate with ATP added thereto, and an enzyme reaction was performed at room temperature. After completion of the enzyme reaction, an anti-phosphorylated tyrosine antibody labeled with europium and streptavidin labeled with alphycocyanine were added, and a phosphorylated tyrosine residue was quantified by a time resolution fluorescence method.
(§3) A test compound was adjusted to 10 mM using DMSO.
(§4) Further, using 10% DMSO solution, a 1 mM solution was prepared, and this was regarded as a maximum concentration point.
(§5) As a dilution series, a 4-fold dilution series was prepared to a 10 stage.
(§6) As a buffer, TBS containing 10 mM MgCl2, 5 mM MnCl2, 0.2 mM Na3VO4, and 0.1% BSA was used.
(§7) As EGFR and HER2 enzymes, those purified from an insect cell expression system were purchased from Carna Biosciences, Inc.
An EGFR enzyme solution was adjusted to 250 ng/ml using a buffer.
(§8) As a substrate, biotinylated poly-Glu-Tyr (4:1, manufactured by CISbio) was used. A concentration was adjusted to 3.125 μg/ml using the above buffer.
An ATP concentration on study of the EGFR enzyme was adjusted to 125 μM using the buffer.
(§9) For preparing a detection reagent, TBS containing 30 mM EDTA, 0.8M KF and 0.1% BSA was used.
(§10) An anti-phosphorylated tyrosine antibody labeled with europium, PT-66K (CISbio) was adjusted to 195 ng/ml, and streptavidin labeled with alphycocyanine, SA-XL (CISbio) was adjusted to 5 μg/ml.
(§11) As an assay plate, a 384-well plate was used. Per one well, 1.1 μl of a test compound, 4 μl of a substrate solution, and 4 μl of an enzyme solution were added, and 2 μl of an ATP solution was added to initiate an enzyme reaction. The enzyme reaction was performed at room temperature for 60 minutes, and 10 μl of a detection reagent was added to complete the reaction. One hour after completion of the reaction, time resolution fluorescent measurement was performed.

Test [3] has as its target T2, HER2 (Homo sapiens, UniProt P04626).
T2 construct: purchased Carna Biosciences, Inc; host or cells: insect cell expression system
In words: Enzyme inhibitory activity on HER2 (time resolution fluorescence, biotinylated poly-Glu-Tyr substrate). Format: biochemical. The following applies: HER2 purified from insect cell expression system; ATP solution 290 μM; room temperature, 60 minutes. As to the method: as §1, §2, §3, §4, §5, §6, §7
HER2 kinase was adjusted to 1000 ng/ml using a buffer.
as §8
An ATP concentration on study of the HER2 enzyme was adjusted to 290 μM.
as §9, §10, §11

Read-outs that look alike come from different tables or passages of the source.

T1 sequence (P00533 25-1210): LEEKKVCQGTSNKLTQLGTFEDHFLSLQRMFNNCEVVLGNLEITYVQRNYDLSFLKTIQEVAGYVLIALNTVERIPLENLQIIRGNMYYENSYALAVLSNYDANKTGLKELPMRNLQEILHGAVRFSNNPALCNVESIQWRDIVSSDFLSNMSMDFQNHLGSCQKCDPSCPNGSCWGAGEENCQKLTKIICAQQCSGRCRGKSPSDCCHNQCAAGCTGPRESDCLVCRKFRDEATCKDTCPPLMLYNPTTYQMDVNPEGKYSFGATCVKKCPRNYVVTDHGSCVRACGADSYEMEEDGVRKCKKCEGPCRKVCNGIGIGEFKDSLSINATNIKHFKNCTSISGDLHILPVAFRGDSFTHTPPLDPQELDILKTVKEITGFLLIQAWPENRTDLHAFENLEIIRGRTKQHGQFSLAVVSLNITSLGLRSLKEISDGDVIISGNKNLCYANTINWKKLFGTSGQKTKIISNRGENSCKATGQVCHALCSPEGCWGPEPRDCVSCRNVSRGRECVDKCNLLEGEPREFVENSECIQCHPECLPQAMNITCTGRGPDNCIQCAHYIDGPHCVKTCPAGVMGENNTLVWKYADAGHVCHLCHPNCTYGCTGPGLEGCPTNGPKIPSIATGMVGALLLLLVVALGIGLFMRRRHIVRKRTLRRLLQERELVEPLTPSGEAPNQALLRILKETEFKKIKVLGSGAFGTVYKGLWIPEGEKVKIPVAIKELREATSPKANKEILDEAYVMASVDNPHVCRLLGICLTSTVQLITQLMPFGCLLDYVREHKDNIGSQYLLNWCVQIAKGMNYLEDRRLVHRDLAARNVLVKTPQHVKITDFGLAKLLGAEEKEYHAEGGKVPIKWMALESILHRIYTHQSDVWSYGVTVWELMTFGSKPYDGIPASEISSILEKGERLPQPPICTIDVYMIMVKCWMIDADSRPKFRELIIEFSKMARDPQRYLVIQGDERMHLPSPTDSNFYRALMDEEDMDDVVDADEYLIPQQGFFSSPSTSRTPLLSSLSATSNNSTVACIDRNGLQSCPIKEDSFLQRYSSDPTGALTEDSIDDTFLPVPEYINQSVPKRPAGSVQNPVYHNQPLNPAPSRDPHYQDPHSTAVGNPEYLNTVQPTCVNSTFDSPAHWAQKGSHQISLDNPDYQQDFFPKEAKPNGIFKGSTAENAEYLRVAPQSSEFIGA
T2 sequence (P04626 23-1255): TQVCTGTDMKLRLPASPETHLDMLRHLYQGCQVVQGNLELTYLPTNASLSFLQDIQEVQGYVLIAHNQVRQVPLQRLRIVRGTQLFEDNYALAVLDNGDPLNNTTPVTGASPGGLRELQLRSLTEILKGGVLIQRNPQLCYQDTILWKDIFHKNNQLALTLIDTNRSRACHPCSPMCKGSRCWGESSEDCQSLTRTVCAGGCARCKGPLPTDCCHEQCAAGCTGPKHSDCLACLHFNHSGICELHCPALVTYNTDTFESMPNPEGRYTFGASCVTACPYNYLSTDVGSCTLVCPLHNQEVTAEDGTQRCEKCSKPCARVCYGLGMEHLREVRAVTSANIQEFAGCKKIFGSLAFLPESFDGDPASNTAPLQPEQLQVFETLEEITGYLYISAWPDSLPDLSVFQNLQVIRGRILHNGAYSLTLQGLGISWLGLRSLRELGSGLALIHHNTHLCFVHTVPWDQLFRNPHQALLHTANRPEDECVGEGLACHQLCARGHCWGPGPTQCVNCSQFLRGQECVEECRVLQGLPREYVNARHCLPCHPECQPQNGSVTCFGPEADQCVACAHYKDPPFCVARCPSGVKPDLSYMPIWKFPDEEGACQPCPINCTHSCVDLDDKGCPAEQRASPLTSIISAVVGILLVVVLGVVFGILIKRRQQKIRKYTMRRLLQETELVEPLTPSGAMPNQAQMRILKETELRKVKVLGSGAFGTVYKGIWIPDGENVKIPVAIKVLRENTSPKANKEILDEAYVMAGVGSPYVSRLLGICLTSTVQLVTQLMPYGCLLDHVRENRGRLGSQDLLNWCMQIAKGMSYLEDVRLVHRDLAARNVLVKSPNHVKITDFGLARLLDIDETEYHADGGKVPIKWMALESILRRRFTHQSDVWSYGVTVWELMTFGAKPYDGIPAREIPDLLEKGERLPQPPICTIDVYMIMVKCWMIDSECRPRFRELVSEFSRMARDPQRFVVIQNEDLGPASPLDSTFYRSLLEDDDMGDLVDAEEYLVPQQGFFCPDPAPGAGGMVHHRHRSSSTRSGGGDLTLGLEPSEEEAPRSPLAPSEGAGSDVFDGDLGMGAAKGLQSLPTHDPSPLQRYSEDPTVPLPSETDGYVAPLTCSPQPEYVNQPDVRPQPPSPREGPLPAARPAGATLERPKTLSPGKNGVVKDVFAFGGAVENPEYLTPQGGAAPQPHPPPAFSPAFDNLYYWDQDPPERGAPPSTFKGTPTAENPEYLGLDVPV

Take `CC#C/C(=N\OC[C@@H]1CCCN1C)c1ccc2ncnc(Nc3ccc(OCc4cccc(F)c4)c(Cl)c3)c2c1` [VIII-75]: the figures for the IC50 in test [1], in test [2] and in test [3] were 22 nM, 50 nM and 34 nM, respectively.

For the compound `CC#C/C(=N\OC[C@H]1NC(=O)O[C@@H]1C)c1ccc2ncnc(Nc3ccc(OCc4cccc(F)c4)c(Cl)c3)c2c1` [VIII-76], the IC50 in test [1] (Homo sapiens, BT-474, 72 h) was 12 nM; in test [2], 162 nM; in test [3], 216 nM.

For the compound `CC#CC(=NOCC1NC(=O)OC1C)c1ccc2ncnc(Nc3ccc(OCc4cccc(F)c4)c(Cl)c3)c2c1` (stereo not drawn) [VIII-77], the IC50 in test [1] turned out to be 11 nM; in test [2] it was 217 nM; in test [3], 246 nM.

For `CC#CC(=NOCC1CCC(=O)N1)c1ccc2ncnc(Nc3ccc(OCc4cccc(F)c4)c(Cl)c3)c2c1` (stereo not drawn) [VIII-78], the IC50 in test [1] came to 35 nM; in test [2], 111 nM; in test [3] it was 410 nM.

On to `CC#CC(=NOC1CNC(CO)C1)c1ccc2ncnc(Nc3ccc(OCc4cccc(F)c4)c(Cl)c3)c2c1` (stereo not drawn) [VIII-80], for which the figures for the IC50 in test [1], in test [2] and in test [3] were 35 nM, 23 nM and 29 nM, respectively.

For the compound `CC#C/C(=N\OC[C@@H]1C[C@@H](O)CN1)c1ccc2ncnc(Nc3ccc(OCc4cccc(F)c4)c(Cl)c3)c2c1` [VIII-81], the IC50 in test [1] (Homo sapiens, BT-474, 72 h) is 8 nM; in test [2] it was 9.8 nM; in test [3] it was 17.7 nM.

With `CC#C/C(=N\OC[C@@H]1C[C@H](O)CN1)c1ccc2ncnc(Nc3ccc(OCc4cccc(F)c4)c(Cl)c3)c2c1` [VIII-82], the IC50 in test [1] stood at 16 nM; in test [2], 7.6 nM; in test [3] it was 7.5 nM.

For the compound `CC#C/C(=N\OC[C@@H]1CCC(=O)N1)c1ccc2ncnc(Nc3ccc(OCc4cccc(F)c4)c(Cl)c3)c2c1` [VIII-83], the IC50 in test [1] was determined as 13 nM; in test [2], 164 nM; in test [3], 121 nM.

For the compound `CC#C/C(=N\OC[C@@H]1C[C@@H](NC(C)=O)CN1)c1ccc2ncnc(Nc3ccc(OCc4cccc(F)c4)c(Cl)c3)c2c1` [VIII-84], the figures for the IC50 in test [1], in test [2] and in test [3] were 28 nM, 44 nM and 47 nM, respectively.

For `CC#C/C(=N\OC[C@H]1CCCN1)c1ccc2ncnc(Nc3ccc(OCc4cccc(F)c4)c(Cl)c3)c2c1` [VIII-85], the IC50 in test [1] came out at 11 nM; in test [2], 32 nM; in test [3], 33 nM.

For the compound `CC#C/C(=N\OC[C@H]1CCCN1CC#N)c1ccc2ncnc(Nc3ccc(OCc4cccc(F)c4)c(Cl)c3)c2c1` [VIII-86], the IC50 in test [1] (Homo sapiens, BT-474, 72 h) came out at 13 nM; in test [2], 244 nM; in test [3], 304 nM.

Regarding `CC#C/C(=N\OC[C@H]1CCCN1CC(=O)OC)c1ccc2ncnc(Nc3ccc(OCc4cccc(F)c4)c(Cl)c3)c2c1` [VIII-87], the IC50 is 6 nM in test [1], 642 nM in test [2] and 476 nM in test [3].

As for `CC#C/C(=N\OC[C@H]1CCCN1CC(=O)O)c1ccc2ncnc(Nc3ccc(OCc4cccc(F)c4)c(Cl)c3)c2c1` [VIII-88], the IC50 in test [1] is 12 nM; in test [2], 47 nM; in test [3] it was 56 nM.

In the case of `CC#C/C(=N\OC[C@@H]1CCCN1CC(=O)O)c1ccc2ncnc(Nc3ccc(OCc4cccc(F)c4)c(Cl)c3)c2c1` [VIII-89], the IC50 turned out to be 25 nM in test [1] (Homo sapiens, BT-474, 72 h); 27 nM in test [2]; 24 nM in test [3].

`CC#C/C(=N\OC[C@H]1CCCN1CCO)c1ccc2ncnc(Nc3ccc(OCc4cccc(F)c4)c(Cl)c3)c2c1` [VIII-90]: the figures for the IC50 in test [1], in test [2] and in test [3] were 9 nM, 93 nM and 97 nM, respectively.

Turning to `CC#C/C(=N\OC[C@H]1CCCN1C)c1ccc2ncnc(Nc3ccc(OCc4cccc(F)c4)c(Cl)c3)c2c1` [VIII-91], the IC50 was determined as 24 nM in test [1], 74 nM in test [2] and 83 nM in test [3].

With `CC#C/C(=N\O[C@H]1CN[C@H](CO)C1)c1ccc2ncnc(Nc3ccc(OCc4cccc(F)c4)c(Cl)c3)c2c1` [VIII-92], the IC50 in test [1] is 29 nM; in test [2], 32 nM; in test [3], 36 nM.

As to `CC#C/C(=N\OCCN1C[C@@H](C)O[C@@H](C)C1)c1ccc2ncnc(Nc3ccc(OCc4cccc(F)c4)c(Cl)c3)c2c1` [VIII-93], the IC50 in test [1] (Homo sapiens, BT-474, 72 h) came out at 38 nM; in test [2] it was 453 nM; in test [3], 321 nM.

For the compound `CC#C/C(=N\OCCN1CCNC(=O)C1)c1ccc2ncnc(Nc3ccc(OCc4cccc(F)c4)c(Cl)c3)c2c1` [VIII-94], the IC50 in test [1] (Homo sapiens, BT-474, 72 h) was determined as 26 nM; in test [2], 213 nM; in test [3], 150 nM.

With `CC#C/C(=N\OCCN1CCS(=O)(=O)CC1)c1ccc2ncnc(Nc3ccc(OCc4cccc(F)c4)c(Cl)c3)c2c1` [VIII-95], the IC50 stood at 25 nM in test [1], 209 nM in test [2] and 176 nM in test [3].

On to `CC#C/C(=N\OCCN1CCN(C)CC1)c1ccc2ncnc(Nc3ccc(OCc4cccc(F)c4)c(Cl)c3)c2c1` [VIII-96], for which the IC50 in test [1] is 30 nM; in test [2], 20 nM; in test [3], 20 nM.

As for `CC#C/C(=N\OCCN1CCC(O)CC1)c1ccc2ncnc(Nc3ccc(OCc4cccc(F)c4)c(Cl)c3)c2c1` [VIII-97], the IC50 turned out to be 11 nM in test [1], 19 nM in test [2] and 22 nM in test [3].

Consider `CC#C/C(=N\OCCN1CCC(N)CC1)c1ccc2ncnc(Nc3ccc(OCc4cccc(F)c4)c(Cl)c3)c2c1` [VIII-98], for which the IC50 turned out to be 65 nM in test [1], 21 nM in test [2] and 21 nM in test [3].

Regarding `CC#C/C(=N\OCCN1CCC(NC(C)=O)CC1)c1ccc2ncnc(Nc3ccc(OCc4cccc(F)c4)c(Cl)c3)c2c1` [VIII-99], the IC50 in test [1] (Homo sapiens, BT-474, 72 h) was 24 nM; in test [2], 84 nM; in test [3], 84 nM.

As for `CC#C/C(=N\OCCN1CCC(NS(C)(=O)=O)CC1)c1ccc2ncnc(Nc3ccc(OCc4cccc(F)c4)c(Cl)c3)c2c1` [VIII-100], the IC50 in test [1] (Homo sapiens, BT-474, 72 h) stood at 16 nM; in test [2], 208 nM; in test [3], 203 nM.

For `CC#C/C(=N\OC[C@@H]1COCCN1)c1ccc2ncnc(Nc3ccc(OCc4cccc(F)c4)c(Cl)c3)c2c1` [VIII-101], the IC50 in test [1] was found to be 12 nM; in test [2], 56 nM; in test [3], 129 nM.

Turning to `CC#C/C(=N\OC[C@H]1COCCN1)c1ccc2ncnc(Nc3ccc(OCc4cccc(F)c4)c(Cl)c3)c2c1` [VIII-102], the IC50 in test [1] amounted to 7 nM; in test [2], 72 nM; in test [3] it was 121 nM.

For `CC#CC(=NOCC1CNCCN1)c1ccc2ncnc(Nc3ccc(OCc4cccc(F)c4)c(Cl)c3)c2c1` (stereo not drawn) [VIII-103], the IC50 in test [1] (Homo sapiens, BT-474, 72 h) is 11 nM; in test [2] it was 3.9 nM; in test [3], 5.6 nM.

For `CC#C/C(=N\OC[C@@H]1COCCN1CC#N)c1ccc2ncnc(Nc3ccc(OCc4cccc(F)c4)c(Cl)c3)c2c1` [VIII-104], the IC50 in test [1] was 60 nM; in test [2] it was 238 nM; in test [3], 202 nM.

Take `CC#C/C(=N\OC[C@H]1CNCCN1)c1ccc2ncnc(Nc3ccc(OCc4cccc(F)c4)c(Cl)c3)c2c1` [VIII-105]: the IC50 was found to be 10 nM in test [1], 14 nM in test [2] and 14 nM in test [3].

For the compound `CC#C/C(=N\OC[C@@H]1NCCO[C@H]1C)c1ccc2ncnc(Nc3ccc(OCc4cccc(F)c4)c(Cl)c3)c2c1` [VIII-106], the IC50 in test [1] (Homo sapiens, BT-474, 72 h) came to 16 nM; in test [2] it was 160 nM; in test [3], 148 nM.

For `CC#C/C(=N\OC[C@H]1NCCO[C@@H]1C)c1ccc2ncnc(Nc3ccc(OCc4cccc(F)c4)c(Cl)c3)c2c1` [VIII-107], the values for the IC50 in test [1], in test [2] and in test [3] were 23 nM, 150 nM and 135 nM, respectively.

As for `CC#CC(=NOCC1CN(C)CCN1C)c1ccc2ncnc(Nc3ccc(OCc4cccc(F)c4)c(Cl)c3)c2c1` (stereo not drawn) [VIII-108], the IC50 was found to be 31 nM in test [1] (Homo sapiens, BT-474, 72 h); 53 nM in test [2]; 56 nM in test [3].
